Patent publication US20060083738A1, “Treatment of cancer by the use of anti fas antibody” (FUSION ANTIBODIES LIMITED, priority 2002, published 2006)

Legend:
Type in all cases: cell-based
[1] = tested on: procaspase 8, BID, c-FLIP, FasL; experiment: Expression and activation of apoptosis regulating proteins in drug-treated cells
Protocol: FIG. 2 illustrates expression of apoptosis regulating proteins in MCF-7 cells 72 hours after treatment with 10 μM 5-FU or 100 nM TDX.
(§1) Moreover, procaspase 8 and BID cleavage are not observed in cells treated with either 5PU or anti-Fas monoclonal antibody alone. However, both are activated following co-treatment with 5FU and anti-Fas monoclonal antibody (indicated by loss of full-length procaspase 8 and BID).

[2] = tested on: Fas; experiment: Fas expression in response to 5FU treatment, HCT116; conditions: HCT116 colorectal cancer cell line
Source text: (§2) FIG. 1 illustrates FAS/CD95 expression in response to 5-FU and tomudex (TDX).
as §1

[3] = tested on: Fas / FasL interaction; experiment: Immunoprecipitation of Fas receptor and FasL; conditions: 5FU treatment, FIG. 1B
[4] = tested on: Fas; experiment: Fas expression in response to 5FU treatment, MCF-7; conditions: MCF-7 breast cancer cell line
Source text: as §2, §1

Structure (SMILES): O=c1[nH]cc(F)c(=O)[nH]1 [5FU, 5-Fluorouracil]
- FasL expression ([1]; 5FU treatment): unaffected
- activation of procaspase 8 or BID ([1]; 5FU-treated MCF-7 and HCT116 cells, FIG. 1A): does not result in activation of procaspase 8 or BID
- c-FLIP expression ([1]; 5FU-treated cells or co-treated cells): up-regulated
- procaspase 8 and BID cleavage ([1]; single agent or co-treatment, loss of full-length procaspase 8 and BID): not observed
- up-regulation of Fas expression [2]: > 10 fold
- interaction between receptor (Fas) and ligand (FasL) [3]: up-regulated
- up-regulation of Fas expression [4]: > 10 fold
